Some test systems named below: HOP-62 NSCLC; SNB-19 CNS; SN12C renal; ACHN renal; SK-MEL-2 melanoma; SNB-75 CNS; CAKI-1 renal; M14 melanoma; DU-145 prostate; K-562 leukemia.
What all share (assay): NCI-60 cell line screen, 48 h

The structures appear in SMILES notation.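 Results reflect a 48-hour exposure of cells in 96-well plates to compound at five concentrations. GI50: concentration for 50% inhibition of growth. TGI marks complete inhibition of growth.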

`Cn1c(=O)c(Oc2ccc(F)cc2F)cc2cnc(N[C@@H]3CCOC3)nc21`: the GI50 in the assay with HOP-62 NSCLC, with SNB-19 CNS, in the assay on SN12C renal, with ACHN renal, with SK-MEL-2 melanoma and in the assay with SNB-75 CNS was above 25000 nM throughout. For the same compound, the GI50 in the assay on CAKI-1 renal was above 25000 nM; in the assay with M14 melanoma, above 25 µM; in the assay on DU-145 prostate, above 25000 nM; in the assay with K-562 leukemia, above 25000 nM. Moreover, the TGI in the assay with HOP-62 NSCLC, in the assay on SNB-19 CNS, in the assay with SN12C renal, with ACHN renal, in the assay with SK-MEL-2 melanoma and with SNB-75 CNS was above 25 µM each time. The TGI in the assay on CAKI-1 renal, with M14 melanoma, in the assay with DU-145 prostate and in the assay on K-562 leukemia was above 25 µM each time.
With `O=C(Nc1cc(F)c(F)cc1C(=O)O)c1ccc(-n2ccnc2)nn1`, the GI50 with HOP-62 NSCLC, with SNB-19 CNS, with SN12C renal, in the assay on ACHN renal, in the assay on SK-MEL-2 melanoma and with SNB-75 CNS was above 100000 nM throughout. Moreover, the GI50 is above 100000 nM with CAKI-1 renal, above 100 µM in the assay on M14 melanoma, above 100000 nM with DU-145 prostate and 80500 nM with K-562 leukemia. Besides, the TGI with HOP-62 NSCLC, with SNB-19 CNS, with SN12C renal, in the assay on ACHN renal, in the assay on SK-MEL-2 melanoma and in the assay with SNB-75 CNS was above 100 µM throughout. The TGI in the assay on CAKI-1 renal, in the assay with M14 melanoma, with DU-145 prostate and with K-562 leukemia was above 100 µM each time.
For the compound `COc1cc2ncnc(Nc3ccc(Oc4ccnc(C)c4)c(C)c3)c2cc1NC(=O)CC1CCSS1` (stereo unspecified), the GI50 in the assay with HOP-62 NSCLC was 1160 nM; in the assay with SNB-19 CNS, 1080 nM; in the assay with SN12C renal it was 1500 nM; in the assay on ACHN renal, 1490 nM; in the assay on SK-MEL-2 melanoma, 904 nM; with SNB-75 CNS it was 1410 nM. For the same compound, the GI50 in the assay with CAKI-1 renal was 1310 nM; in the assay on DU-145 prostate, 1440 nM; with K-562 leukemia it was 253 nM. For the same compound, the TGI with HOP-62 NSCLC is 2.91 µM; in the assay on SNB-19 CNS it was 2.49 µM; with SN12C renal it was above 50 µM; with ACHN renal, 8.48 µM; with SK-MEL-2 melanoma it was 1.91 µM; in the assay on SNB-75 CNS, above 25.2 µM. Moreover, the TGI with CAKI-1 renal was above 14.5 µM; in the assay on DU-145 prostate it was 6.31 µM; in the assay on K-562 leukemia it was 1.18 µM.
Consider `CS(=O)(=O)c1cccc(Nc2ncc3cc(-c4ccccc4Cl)ccc3n2)c1`, for which the GI50 with HOP-62 NSCLC was 1300 nM; in the assay on SNB-19 CNS, 2460 nM; with SN12C renal it was 1120 nM; in the assay with ACHN renal, 1010 nM; in the assay on SK-MEL-2 melanoma, 920 nM; in the assay with SNB-75 CNS, 507 nM. The GI50 with CAKI-1 renal is 859 nM; in the assay on M14 melanoma, 1.15 µM; with DU-145 prostate, 1420 nM; in the assay with K-562 leukemia, 165 nM. In addition, the TGI with HOP-62 NSCLC was above 33.3 µM; with SNB-19 CNS it was above 33.3 µM; in the assay with SN12C renal it was above 33.3 µM; in the assay with ACHN renal, above 33.3 µM; in the assay with SK-MEL-2 melanoma, 2.61 µM; with SNB-75 CNS, 2.3 µM. The TGI in the assay on CAKI-1 renal is 9.57 µM; in the assay with M14 melanoma, above 33.3 µM; with DU-145 prostate, above 33.3 µM; in the assay on K-562 leukemia it was above 33.3 µM.
Consider `Cc1ccc(-c2nc(-c3nccc4ccccc34)oc2-c2ccccc2)cc1`, for which the TGI in the assay with HOP-62 NSCLC was above 100 µM; in the assay with SNB-19 CNS, above 100 µM; in the assay on SN12C renal, 62.7 µM; with ACHN renal, above 100 µM; with SK-MEL-2 melanoma, above 100 µM; in the assay with SNB-75 CNS, 92.7 µM. Also, the TGI in the assay on CAKI-1 renal, in the assay on M14 melanoma, with DU-145 prostate and in the assay with K-562 leukemia was above 100 µM in each case.
For `COc1ccc(S(=O)(=O)Nc2c(/C=C\c3cc(OC)c(OC)c(OC)c3)ccc(OC)c2O)cc1`, the GI50 was 39.7 nM in the assay on HOP-62 NSCLC; 60.2 nM in the assay on SNB-19 CNS; 86.9 nM with SN12C renal; 69.3 nM with ACHN renal; 43.7 nM in the assay with SK-MEL-2 melanoma; 25.5 nM in the assay on SNB-75 CNS. Moreover, the GI50 in the assay on CAKI-1 renal was 51.6 nM; in the assay with DU-145 prostate it was 42.5 nM; in the assay with K-562 leukemia it was 28.6 nM. The TGI with HOP-62 NSCLC is above 100 µM; in the assay on SNB-19 CNS, above 100 µM; in the assay with SN12C renal, above 100 µM; in the assay on ACHN renal, 70.7 µM; in the assay with SK-MEL-2 melanoma, 37.1 µM; in the assay with SNB-75 CNS it was 88.8 µM. The TGI was 79.8 µM in the assay with CAKI-1 renal, above 100 µM with DU-145 prostate and above 100 µM in the assay on K-562 leukemia.
For the compound `Oc1ccc2ccccc2c1C=NCc1c(O)ccc2ccccc12`, the TGI in the assay on HOP-62 NSCLC, in the assay on SNB-19 CNS, in the assay with SN12C renal, in the assay with ACHN renal, with SK-MEL-2 melanoma and with SNB-75 CNS was above 100 µM throughout. Besides, the TGI with CAKI-1 renal, in the assay on M14 melanoma, in the assay on DU-145 prostate and in the assay on K-562 leukemia was above 100 µM each time.
For `O=C1Cc2cc(CCn3cncn3)c(Cl)cc2N1`, the GI50 with HOP-62 NSCLC is 29900 nM; with SNB-19 CNS it was 70700 nM; in the assay with SN12C renal it was above 100000 nM; in the assay with ACHN renal, above 100000 nM; in the assay with SK-MEL-2 melanoma, 12400 nM; with SNB-75 CNS, 13200 nM. The GI50 is 8330 nM with CAKI-1 renal, 3.98 µM in the assay with M14 melanoma, above 100000 nM with DU-145 prostate and 7680 nM in the assay on K-562 leukemia. In addition, the TGI in the assay with HOP-62 NSCLC, in the assay on SNB-19 CNS, with SN12C renal, in the assay with ACHN renal, in the assay with SK-MEL-2 melanoma and in the assay with SNB-75 CNS was above 100 µM each time. The TGI in the assay on CAKI-1 renal, in the assay on M14 melanoma, in the assay on DU-145 prostate and with K-562 leukemia was above 100 µM in each case.

These data come from PubChem BioAssay (NCI).
